Assay results as given in US8017611B2, “Pyridine and pyrazine derivatives -083” (AstraZeneca AB, priority 2007, dated 2011).

Target: T1, recombinant Axl tyrosine kinase (Homo sapiens, UniProt P30530)
T1 construct: encompassing amino acids 473 to 894 of Axl; GST (N); made in house; host or cells: SF126 insect cells
T1 sequence (P30530 473-894): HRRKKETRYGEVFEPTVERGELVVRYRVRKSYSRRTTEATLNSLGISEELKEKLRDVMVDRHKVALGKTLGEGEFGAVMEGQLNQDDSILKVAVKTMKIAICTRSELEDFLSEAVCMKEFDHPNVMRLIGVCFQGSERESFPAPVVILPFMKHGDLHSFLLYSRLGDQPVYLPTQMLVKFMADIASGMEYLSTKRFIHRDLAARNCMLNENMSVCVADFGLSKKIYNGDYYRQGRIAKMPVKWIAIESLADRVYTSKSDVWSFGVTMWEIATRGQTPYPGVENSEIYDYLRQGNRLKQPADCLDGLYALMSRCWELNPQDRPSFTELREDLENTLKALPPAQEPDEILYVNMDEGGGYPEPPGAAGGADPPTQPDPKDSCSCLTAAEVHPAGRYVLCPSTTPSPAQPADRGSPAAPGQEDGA
Assay: In vitro Axl kinase assay (AlphaScreen), Test (a)
Assay type: biochemical
Conditions: test compound at 1 μM; first value quoted

SMILES | % Axl tyrosine kinase inhibition at 1 μM concentration [%]
CN(C)CCC1CCN(C(=O)c2ccc(-c3cnc(N)c(-c4nc5cccnc5o4)c3)cc2)CC1 [Example 45A.14] | 89.9
Nc1ncc(-c2ccc(C(=O)N3CCCC3CN3CCOCC3)cc2)cc1-c1nc2cccnc2o1 (centres unmarked) [Example 45A.16] | 94.2
CC1CCCCN1CC1CCCN1C(=O)c1ccc(-c2cnc(N)c(-c3nc4cccnc4o3)c2)cc1 (centres unmarked) [Example 45A.18] | 99.7
CN(C)C1CCCN(C(=O)c2ccc(-c3cnc(N)c(-c4nc5cccnc5o4)c3)cc2)C1 (centres unmarked) [Example 45A.20] | 98.9
Nc1ncc(-c2ccc(C(=O)N3CCCCC3CN3CCOCC3)cc2)cc1-c1nc2cccnc2o1 (centres unmarked) [Example 45A.21] | 96.4
CN(C)C1CCC(NC(=O)c2ccc(-c3cnc(N)c(-c4nc5cccnc5o4)c3)cc2)CC1 (centres unmarked) [Example 45A.24] | 95.8
CN1CCC(N(C)C(=O)c2ccc(-c3cnc(N)c(-c4nc5cccnc5o4)c3)cc2)CC1 [Example 45A.31] | 95.9
CCN(CC)C1CCN(C(=O)c2ccc(-c3cnc(N)c(-c4nc5cccnc5o4)c3)cc2)C1 (centres unmarked) [Example 45A.33] | 97.7
Nc1ncc(-c2ccc(C(=O)N[C@H]3CN4CCC3CC4)cc2)cc1-c1nc2cccnc2o1 [Example 45A.35] | 98.4
CC(C)N1CCC(CN(C)C(=O)c2ccc(-c3cnc(N)c(-c4nc5cccnc5o4)c3)cc2)C1 (centres unmarked) [Example 45A.42] | 99.3
CC(C)N1CCC[C@H]1CNC(=O)c1ccc(-c2cnc(N)c(-c3nc4cccnc4o3)c2)cc1 [Example 45A.43] | 99.9
CN1CCC(NC(=O)c2ccc(-c3cnc(N)c(-c4nc5cccnc5o4)c3)cc2)C2CCCCC21 (centres unmarked) [Example 45A.44] | 99.3
CN(C)CCN(C)C(=O)c1ccc(-c2cnc(N)c(-c3nc4cccnc4o3)c2)cc1 [Example 45A.48] | 98.3
CN1CCN(C(=O)c2ccc(-c3cnc(N)c(-c4nc5cccnc5o4)c3)cc2)CC1 [Example 45A.49] | 96.1
CN(C)CCN1CCN(C(=O)c2ccc(-c3cnc(N)c(-c4nc5cccnc5o4)c3)cc2)CC1 [Example 45A.50] | 93.7
Nc1ncc(-c2ccc(C(=O)N3CCC(N4CCCCC4)CC3)cc2)cc1-c1nc2cccnc2o1 [Example 45A.52] | 94.3
Nc1ncc(-c2ccc(C(=O)NCCCn3ccnc3)cc2)cc1-c1nc2cccnc2o1 [Example 45A.53] | 98.8
CN(C)CCCN(C)C(=O)c1ccc(-c2cnc(N)c(-c3nc4cccnc4o3)c2)cc1 [Example 45A.54] | 97.8
Nc1ncc(-c2ccc(C(=O)N3CCN(Cc4ccccn4)CC3)cc2)cc1-c1nc2cccnc2o1 [Example 45A.60] | 98.1
Nc1ncc(-c2ccc(C(=O)N3CCN(Cc4cccnc4)CC3)cc2)cc1-c1nc2cccnc2o1 [Example 45A.61] | 95.1
Nc1ncc(-c2ccc(C(=O)N3CCN(Cc4ccncc4)CC3)cc2)cc1-c1nc2cccnc2o1 [Example 45A.62] | 97.3
Nc1ncc(-c2ccc(C(=O)N3CCC(N4CCCC4)CC3)cc2)cc1-c1nc2cccnc2o1 [Example 45A.63] | 99.1
Nc1ncc(-c2ccc(C(=O)N3CCC(N4CCOCC4)CC3)cc2)cc1-c1nc2cccnc2o1 [Example 45A.64] | 98.6
CN1CCCN(C(=O)c2ccc(-c3cnc(N)c(-c4nc5cccnc5o4)c3)cc2)CC1 [Example 45A.65] | 98.3
CN(C)C(=O)CN1CCN(C(=O)c2ccc(-c3cnc(N)c(-c4nc5cccnc5o4)c3)cc2)CC1 [Example 45A.67] | 96.8

The next lines start with the values.

% Axl tyrosine kinase inhibition at 1 μM concentration [%] | SMILES
99.8 | Nc1ncc(-c2ccc(C(=O)N3CCCCC3CN3CCCCC3)cc2)cc1-c1nc2cccnc2o1 (centres unmarked) [Example 45A.8]
99.0 | Nc1ncc(-c2ccc(C(=O)NCCCN3CCCCC3)cc2)cc1-c1nc2cccnc2o1 [Example 45A.9]
97.5 | COCCN1CCC(NC(=O)c2ccc(-c3cnc(N)c(-c4nc5cccnc5o4)c3)cc2)CC1 [Example 45A.10]
96.3 | Nc1ncc(-c2ccc(C(=O)NCCN3CCS(=O)(=O)CC3)cc2)cc1-c1nc2cccnc2o1 [Example 45A.12]
99.7 | CN1CCCCC1C1CCCN1C(=O)c1ccc(-c2cnc(N)c(-c3nc4cccnc4o3)c2)cc1 (centres unmarked) [Example 45A.15]
99.6 | Nc1ncc(-c2ccc(C(=O)N3CCCC3CN3CCCCCC3)cc2)cc1-c1nc2cccnc2o1 (centres unmarked) [Example 45A.17]
98.7 | CN1CCCC(NC(=O)c2ccc(-c3cnc(N)c(-c4nc5cccnc5o4)c3)cc2)C1 (centres unmarked) [Example 45A.19]
97.1 | Nc1ncc(-c2ccc(C(=O)N3CC[C@H](N4CCCC4)C3)cc2)cc1-c1nc2cccnc2o1 [Example 45A.22]
99.8 | Nc1ncc(-c2ccc(C(=O)N3CCCCC3CN3CCCC3)cc2)cc1-c1nc2cccnc2o1 (centres unmarked) [Example 45A.23]
97.8 | CN1CCC(CNC(=O)c2ccc(-c3cnc(N)c(-c4nc5cccnc5o4)c3)cc2)CC1 [Example 45A.25]
99.6 | CN1CCCCC1CNC(=O)c1ccc(-c2cnc(N)c(-c3nc4cccnc4o3)c2)cc1 (centres unmarked) [Example 45A.26]
97.9 | CN1CCC(CNC(=O)c2ccc(-c3cnc(N)c(-c4nc5cccnc5o4)c3)cc2)C1 (centres unmarked) [Example 45A.27]
97.5 | CN1CCOC(CNC(=O)c2ccc(-c3cnc(N)c(-c4nc5cccnc5o4)c3)cc2)C1 (centres unmarked) [Example 45A.28]
98.8 | Nc1ncc(-c2ccc(C(=O)N3CCCCC3CCN3CCCC3)cc2)cc1-c1nc2cccnc2o1 (centres unmarked) [Example 45A.29]
97.4 | CN1CC(NC(=O)c2ccc(-c3cnc(N)c(-c4nc5cccnc5o4)c3)cc2)C1 [Example 45A.30]
99.6 | Nc1ncc(-c2ccc(C(=O)NCCN3CCCCCC3)cc2)cc1-c1nc2cccnc2o1 [Example 45A.32]
92.2 | Nc1ncc(-c2ccc(C(=O)NCCN3CCC(F)(F)C3)cc2)cc1-c1nc2cccnc2o1 [Example 45A.37]

% Axl tyrosine kinase inhibition at 1 μM concentration [%] | SMILES
98.4 | Nc1ncc(-c2ccc(C(=O)NCCN3CC[C@H](F)C3)cc2)cc1-c1nc2cccnc2o1 [Example 45A.38]
98.4 | Nc1ncc(-c2ccc(C(=O)NCCCN3CC[C@@H](F)C3)cc2)cc1-c1nc2cccnc2o1 [Example 45A.39]
98.3 | Nc1ncc(-c2ccc(C(=O)NCCCN3CC[C@H](F)C3)cc2)cc1-c1nc2cccnc2o1 [Example 45A.40]
99.0 | CN(C)C1(CNC(=O)c2ccc(-c3cnc(N)c(-c4nc5cccnc5o4)c3)cc2)CCCCC1 [Example 45A.41]
93.8 | C[C@@H]1CN(CCNC(=O)c2ccc(-c3cnc(N)c(-c4nc5cccnc5o4)c3)cc2)C[C@H](C)O1 [Example 45A.45]
99.1 | CC1CCN(CCCNC(=O)c2ccc(-c3cnc(N)c(-c4nc5cccnc5o4)c3)cc2)CC1 [Example 45A.46]
96.1 | CCN1CCC(CNC(=O)c2ccc(-c3cnc(N)c(-c4nc5cccnc5o4)c3)cc2)CC1 [Example 45A.47]
98.5 | Nc1ncc(-c2ccc(C(=O)NCCN3CCOCC3)cc2)cc1-c1nc2cccnc2o1 [Example 45A.51]
98.9 | Nc1ncc(-c2ccc(C(=O)NCCN3CCCC3)cc2)cc1-c1nc2cccnc2o1 [Example 45A.55]
98.9 | Nc1ncc(-c2ccc(C(=O)NCCN3CCCCC3)cc2)cc1-c1nc2cccnc2o1 [Example 45A.56]
96.9 | Nc1ncc(-c2ccc(C(=O)NCCCN3CCOCC3)cc2)cc1-c1nc2cccnc2o1 [Example 45A.57]
97.0 | CN1CCN(CCCNC(=O)c2ccc(-c3cnc(N)c(-c4nc5cccnc5o4)c3)cc2)CC1 [Example 45A.58]
88.8 | COCCN1CCN(C(=O)c2ccc(-c3cnc(N)c(-c4nc5cccnc5o4)c3)cc2)CC1 [Example 45A.59]
99.9 | Nc1ncc(-c2ccc(C(=O)N3CCC[C@H]3CN3CCCC3)cc2)cc1-c1nc2cccnc2o1 [Example 45A.66]
91.3 | Nc1ncc(-c2ccc(C(=O)N3CCN(CCN4CCCC4)CC3)cc2)cc1-c1nc2cccnc2o1 [Example 45A.68]
96.7 | CN1CCC(NC(=O)c2ccc(-c3cnc(N)c(-c4nc5cccnc5o4)c3)cc2)CC1 [Example 45A.69]
98.8 | CN(CCN1CCCC1)C(=O)c1ccc(-c2cnc(N)c(-c3nc4cccnc4o3)c2)cc1 [Example 45A.70]
